Earlier results as cited in patent US20020137787A1, “Prevention or treatment of complications related to non-insulin dependent diabetes mellitus or type 2 diabetes mellitus” (priority 2001, published 2002).
Read-outs that look alike come from different tables or passages of the source.

Columns and labels:
[1] = patients taking Clozapine

| Compound | effect on body weight [1] | effect on body weight (overweight depressed patients) | effects on blood glucose and lipid profiles (reported) |
| --- | --- | --- | --- |
| CN1CCN(C2=Nc3cc(Cl)ccc3Nc3ccccc32)CC1 [Clozapine] | increased weight | – | – |
| CNCCC(Oc1ccc(C(F)(F)F)cc1)c1ccccc1 (stereo not drawn) [Fluoxetine] | – | weight loss | positive effects |
